According to patent US10022382B2, “RNA polymerase I inhibitors and uses thereof” (Tel HaShomer Medical Research Infrastructure and Services …, priority 2013, dated 2018):

What was measured:
[1] = Bioavailability: serum level after oral gavage or IV; format: in vivo, mice; conditions: for time to maximal concentration: healthy C57B6J female mice
Experimental: Bioavailability: Determination of the level of the tested compound in serum was done following oral gavage. Blood samples (0.5 mL) were collected and immediately centrifuged at 5,000 rpm for 10 minutes. The serum was separated and stored at −20° C. until fluoprometric analysis by Tecan SpectraFluor, based on the specific excitation/emission values of the tested compound was conducted. The pharmacokinetic parameters including serum maximum concentration (Cmax), the time needed to reach Cmax (Tmax), and half-life (T1/2), were calculated to evaluate oral bioavailability. The serum concentration after oral gavages was calculated according to a calibration curve for each compound in the serum. The Pharmacokinetic properties of compound 10 were quantified by the LCMS method described below. The concentration of Compound 10 was calculated with a calibration curve. The serum was prepared for analysis using protein precipitation. 15 μL of water were added to 15 μL of serum and a H2O: MeOH: CHCl3 (90:120:30) solution was added. The supernatant was subjected to LCMS analysis equipped with a PHENOMENEX® C-18 RP column.

[2] = test system: MOG35-55 EAE in C57BL/6J mice; assay: MOG35-55 EAE prevention (immunization) model; format: in vivo; conditions: for minimal effective dose: oral
Experimental: Mice: Eight-weeks-old female C57BL/6J mice (15-20 g, Harlan laboratories, Rehovot, Israel) were used in all experiments. Animal maintenance and experimental protocols were performed in accordance with the Israeli Council for Animal Care guidelines and approved by Sheba IRB Animal Care Committee. Mice were kept in an SPF environment, maintained on a 12-h light/dark cycle at a constant environmental temperature with free access to food and water in their home cages.
Induction of MOG35-55 EAE (Prevention Model): EAE (Experimental Autoimmune Encephalomyelitis) was induced in 8 week old female C57BL/6J mice (15-20 g, Harlan laboratories, Rehovot, Israel) by immunization with an emulsion containing 300 μg of purified myelin oligodendrocyte glycoprotein (MOG) peptide ([…], corresponding to residues 35-55; obtained from (Difco, Detroit, Mich.) in saline and an equal volume of complete Freund's adjuvant containing 5 mg H37RA (Difco, Detroit, Mich.). 0.2 ml of the inoculum was injected subcutaneously. In addition, 300 ng of Bordetella pertusis toxin (Sigma) in 0.2 ml saline was injected intraperitoneally at the day of induction and two days later.
Oral gavages with the tested compound, at various concentrations ranging from 3 mg/kg-30 mg/kg in PBS or 50 mM NaH2PO4 (PH 4.5), or with vehicle only, were initiated at day of immunization. Mice were monitored daily for clinical signs of EAE, scored as: 1, flaccid tail; 2, forelimb weakness and poor righting ability; 3, hind limb paralysis; 4, quadriplegia; 5, moribund. Animal reaching a score of 4 were scarified using CO2.
Treatment was stopped once 30% of the vehicle-treated animals scored 1 on the EAE score. […]
The therapeutic index (LD50/ED50), which is also referred to herein as Safety Margin (SM), was then determined based on the EAE model. ED50 is the minimum effective dose observed for 50% of the tested animals.

Pol II = assay: Cell-free polymerase II transcription from CMV promoter; format: biochemical, human; conditions: 200 nM
Experimental: Transcription by polymerase II from CMV promoter was tested similarly using the template provided HeLa scribe kit of Promega, further processing as described above and analysis of transcript with template specific primers: POL II forward primer: ctatgcgcacccgttctc (SEQ ID NO: 73), Pol II reverse primer: gtagcgaagcgagcagga (SEQ ID NO: 74). Probe ID: #70, cat. no. 04688937001 (Roche), was used for both reactions.

naive mice = assay: Single dose oral toxicity in naive mice; format: in vivo; conditions: single oral dose 3 mg/kg to 500.0 mg/kg, 24 h
Experimental: The toxicity of oral administration of a single dose of Compound 10 was tested in naïve mice using range from 3 mg/kg to 500.0 mg/kg.

Cc1cnc(CNC(=O)c2/c(=N/c3ccccc3)c3ccc(N4CCCN(C)CC4)nc3n3c2sc2ccccc23)cn1 [Compound 10, (E)-2-(4-methyl-1,4-diazepan-1-yl)-N-((5-methylpyrazin-2-yl)methyl)-5-(phenylimino)-5H-benzo[4,5]thiazolo[3,2-a][1,8]naphthyridine-6-carboxamide]
bioavailability AUC(oral)/AUC(IV) ([1]; 12.5 mg/kg, up to 168 h): 72%
time to maximal concentration ([1]; IV, 12.5 mg/kg): 0.5 h
Cmax compared to Compound 1 ([1]; mice serum, oral gavage): higher
Tmax compared to Compound 1 ([1]; mice serum, oral gavage): lower
clearance compared to Compound 1 ([1]; mice serum, oral gavage): faster
absorption ([1]; oral and IV, 12.5 mg/kg): rapidly absorbed
time to maximal concentration ([1]; oral, 12.5 mg/kg): 2 h
disease incidence ([2]; 3 mg/kg, alternate days): 98%
delay of disease development ([2]; 12.0 mg/kg oral, alternate days): 10 days
EAE severity ([2]; 12.0 mg/kg oral, alternate days, 23 day post immunization): suppressed EAE severity
EAE onset (dpi) ([2]; 12.5 mg/Kg oral, 15 mice): 19.2 ± 0.6 dpi
Max clinical score ([2]; 12.5 mg/Kg oral, 15 mice): 1.2 ± 0.4
Peak of EAE (dpi) ([2]; 12.5 mg/Kg oral, 15 mice): 20.4 ± 0.7 dpi
Cumulative disease score ([2]; 12.5 mg/Kg oral, sum of scores day 0 to day 31): 7.2 ± 1.9
additional days free of disease compared to vehicle ([2]; 12.5 mg/Kg, 15 mice per group): 10 days
delay of peak of disease compared to vehicle ([2]; 12.5 mg/Kg, 15 mice per group): 6 days
EAE inhibition ([2]; 12.5 mg/kg daily): complete inhibition of EAE
disease incidence ([2]; 12.5 mg/kg, alternate days): 22%
disease development ([2]; 30 mg/kg, alternate days): completely inhibited disease development
ED50 ([2]; Mus musculus): 3 mg/kg
minimal effective dose ([2]; alternate days): 6 mg/kg
minimal effective dose ([2]; daily administration): 3.0 mg/kg
effect on Pol II transcription from the CMV promoter (Pol II): 5%
behavioral changes (naive mice): No behavioral changes
survival (naive mice): No effect on survival
